For data set [1] the following is noted: cited from earlier work; for pH of 0.1 M aqueous sol'n: 0.1M aqueous solution, 25° C.
A short description of data set [2]: In vitro skin permeation of diclofenac sodium transdermal delivery systems, Franz diffusion cells. The following applies: 24 hours; for cumulative amount of diclofenac that permeated through the skin: 32° C. Type of data set: in vitro ADME, human. How it is done: Each formulation was coated on a release liner and dried in an oven at 65° C. for two hours to remove water and other solvents. The dried drug-in-adhesive/release liner film was laminated to a backing film, and the backing/drug-in-adhesive/release liner laminate was then cut into discs with a diameter of 9/16 inch. The theoretical weight percent weight of each component of the system, after drying (calculated assuming all volatile ingredients were completely removed during drying), is set forth in Table 3.
The release liner was peeled away from the disc laminate. […] The skin/adhesive/backing laminate was clamped between the donor and receiver chambers of the diffusion cell with the skin side facing the receiver solution. […] All cells and receiver solution were maintained at 32° C. for the 24-hour duration of the study.

The term pKa denotes the negative logarithm of the acid dissociation constant.

As to `NCCc1ccccc1` [phenethylamine], the “pH of 0.1 M aqueous sol'n” value in data set [1] is recorded as 11.42.

With `COc1ccncc1` [4-methoxypyridine], in data set [1], the “pH of 0.1 M aqueous sol'n” value is 9.79 and the pKa is 6.58.

For the compound `Cc1ccnc(C)c1` [2,4-dimethylpyridine], in data set [1], the “pH of 0.1 M aqueous sol'n” value was 10.00 and the pKa was 6.99.

On to `Cc1cncc(C)c1` [3,5-dimethylpyridine], for which the “pH of 0.1 M aqueous sol'n” value in data set [1] is listed as 9.58.

As for `CC1CNC(C)CN1` (stereo not shown) [2,5-dimethylpiperazine], in data set [1], the “pH of 0.1 M aqueous sol'n” value was 11.33 and the pKa is 9.66.

Take `Cc1c[nH]c(C)n1` [2,4-dimethylimidazole]: in data set [1], the “pH of 0.1 M aqueous sol'n” value is 10.68 and the pKa is recorded as 8.36.

Regarding `c1ccc2[nH]cnc2c1` [benzitnidazole], in data set [1], the “pH of 0.1 M aqueous sol'n” value was 9.24 and the pKa is given as 5.48.

Regarding `Cc1cc(C)nc(C)c1` [2,4,6-trimethylpyridine], the pKa in data set [1] is given as 6.69.

`Cc1ccncc1` [γ-picoline]: the pKa in data set [1] is 5.99.

In the case of `NCCN` [ethylenediamine], the pKa in data set [1] is 9.93.

With `NC1CCCCC1` [cyclohexylamine], in data set [1], the “pH of 0.1 M aqueous sol'n” value is on record as 11.82.

On to `Cc1cccnc1C` [2,3-dimethylpyridine], for which the “pH of 0.1 M aqueous sol'n” value in data set [1] is 9.79.

Turning to `O=C(O)Cc1ccccc1Nc1c(Cl)cccc1Cl` [diclofenac, diclofenac sodium], the “cumulative amount of diclofenac that permeated through the skin” value in data set [2] (N-methyl glucamine added (Formulation H, with NaOH)) was 1.54 mg/cm^2; in data set [2] (monoethanolamine added (Formulation G, with NaOH)), 1.57 mg/cm^2; in data set [2] (no nitrogenous base added (Formulation E, NaOH only)), 0.90 mg/cm^2; in data set [2] (triethanolamine added (Formulation F, with NaOH)), 1.08 mg/cm^2. Moreover, the “cumulative amount of diclofenac permeated, times higher than when no nitrogenous base was present” value in data set [2] (system containing monoethanolamine vs no nitrogenous base) is on record as “about 1.7 times”.

As to `C1CNCCN1` [piperazine], the “pH of 0.1 M aqueous sol'n” value in data set [1] was 11.42.

Regarding `CCCCN` [n-butylamine], the “pH of 0.1 M aqueous sol'n” value in data set [1] is 11.81.

For `Nc1ccc(N)nc1` [2,5-diaminopyridine], in data set [1], the “pH of 0.1 M aqueous sol'n” value is 9.74 and the pKa was 6.48.

Take `NCc1ccccc1` [benzylamine]: the “pH of 0.1 M aqueous sol'n” value in data set [1] is 11.17.

Take `CC(N)c1ccccc1` (stereo not drawn) [α-methyl-benzylamine]: in data set [1], the “pH of 0.1 M aqueous sol'n” value was 11.38 and the pKa is reported as 9.75.

With `CC1CCCCN1C` (stereo not shown) [1,2-dimethylpiperidine], in data set [1], the “pH of 0.1 M aqueous sol'n” value was 11.61 and the pKa is reported as 10.22.

With `CC(C)N` [isopropylamine], in data set [1], the “pH of 0.1 M aqueous sol'n” value is on record as 11.80 and the pKa is 10.60.

`NCCCCN` [1,4-butanediamine]: the “pH of 0.1 M aqueous sol'n” value in data set [1] was 11.90.

With `CN1CCCC1` [N-methylpyrrolidine], in data set [1], the “pH of 0.1 M aqueous sol'n” value is listed as 11.73 and the pKa is reported as 10.46.

For the compound `CC1CCCN1C` (stereo not shown) [1,2-dimethylpyrrolidine], in data set [1], the “pH of 0.1 M aqueous sol'n” value is recorded as 11.60 and the pKa is listed as 10.20.

Consider `COc1ccccn1` [2-methoxypyridine], for which the “pH of 0.1 M aqueous sol'n” value in data set [1] is on record as 8.14.

On to `NC(N)=O` [urea], for which the “pH of 0.1 M aqueous sol'n” value in data set [1] is 6.55.

As to `COc1cccnc1` [3-methoxypyridine], in data set [1], the “pH of 0.1 M aqueous sol'n” value is 8.89 and the pKa was 4.78.

As to `CCN1CCCCC1` [1-ethylpiperidine], in data set [1], the “pH of 0.1 M aqueous sol'n” value was 11.73 and the pKa is 10.45.

For `CCCCCC(C)N` (stereo not shown) [2-aminoheptane], in data set [1], the “pH of 0.1 M aqueous sol'n” value is 11.85 and the pKa is recorded as 10.70.

These data come from patent US20050244485A1, “Transdermal administration of hydrophilic drugs using a basic permeation enhancer composition” (priority 2003, published 2005).
